# How the values were obtained:
# recombinant human IDO1 = biological target: T1, recombinant human IDO1 (Homo sapiens, UniProt P14902); test: IDO1 enzymatic assay in vitro; format: biochemical; details: for inhibition at 14 µM / IDO1 activity IC50 [µM] (in vitro assay) / IC50: pre-incubation 37 °C 45 min; for inhibition at 14 µM: mean ± SD; for IDO1 activity IC50 [µM] (in vitro assay) / IC50: determined if inhibition at 14 µM higher than 50%; for in vitro IDO1 inhibition (in words): up to 14 µM, incubated with IDO1 for 45 min
# T1 construct: The GST-tag of IDO1 was removed to obtain untagged full-length IDO1l using PreScission protease; GST (N, cleaved yes); made in house; own inference
# T1 sequence (P14902 whole entry): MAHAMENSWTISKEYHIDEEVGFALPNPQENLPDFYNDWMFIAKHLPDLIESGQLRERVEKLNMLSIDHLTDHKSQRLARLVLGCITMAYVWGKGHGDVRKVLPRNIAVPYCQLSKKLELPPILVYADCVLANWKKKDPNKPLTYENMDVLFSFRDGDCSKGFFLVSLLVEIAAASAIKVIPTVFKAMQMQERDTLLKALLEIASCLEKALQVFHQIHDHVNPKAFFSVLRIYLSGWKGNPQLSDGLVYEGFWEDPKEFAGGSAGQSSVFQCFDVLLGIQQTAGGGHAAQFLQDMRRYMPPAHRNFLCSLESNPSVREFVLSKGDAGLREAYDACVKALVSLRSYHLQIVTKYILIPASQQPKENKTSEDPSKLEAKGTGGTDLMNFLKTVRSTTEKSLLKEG
# [1] = test system: Kyn levels in BxPC3 cells (kynurenine generated by IDO1); test: Cellular Kyn assay (automated Kyn screening assay); format: cell-based; details: for IC50: Homo sapiens, BXPC-3, 48 h, IFN-γ, L-Trp and compounds 48 h, mean ± SD, read-out: IC50 (Kyn assay), reduction of kynurenine levels
# [2] = biological target: IDO1 protein levels in BxPC3 cells (Homo sapiens, UniProt P14902); test: IDO1 immunoblotting (degradation); format: cell-based; set-up: endogenous in cells; host or cells: BxPC3 (DSMZ), IFN-γ stimulated; details: for Max. degradation (%): 24 h incubation, mean ± SD; for Dmax at 0.1 µM: BXPC-3, @100 nM
# Chain of IDO1 protein levels in BxPC3 cells (P14902 whole entry): as above
SMILES,inhibition at 14 µM (recombinant human IDO1) [%],IC50 [1] [nM],IC50 (recombinant human IDO1) [µM],in vitro IDO1 inhibition (in words) (recombinant human IDO1),Max. degradation (%) ([2]; 10 nM),Max. degradation (%) ([2]; 100 nM),Dmax at 0.1 µM ([2]; BxPC3 cells) [%],"Degradation Efficiency (%) ([2]; 100 nM, BxPC3 cells, heatmap Fig. 3d)",IDO1 activity IC50 [µM] (in vitro assay) (recombinant human IDO1),fold increase in potency compared to iDeg-2 in Kyn assay [1]
"CC(C)(C)c1ccc(S(=O)(=O)N2C[C@H]3C[C@H]4C[C@H](C4(C)C)[C@@]3(COC(=O)Nc3ccc(I)cc3)C2)c(C2CC2)c1 [compound 81, ((3aS,4R,6R,7aS)-2-((4-(tert-butyl)-2-cyclopropylphenyl)sulfonyl)-5,5-dimethyloctahydro-3aH-4,6-methanoisoindol-3a-yl)methyl (4-iodophenyl)carbamate]",39 ± 1,19 ± 6,> 14,weak inhibitors,31 ± 18 (3) %,55 ± 4 (3) %,–,–,–,–
"COc1cc(C(C)(C)C)ccc1S(=O)(=O)N1C[C@H]2C[C@H]3C[C@H](C3(C)C)[C@@]2(COC(=O)Nc2ccc(I)cc2)C1 [compound 82, ((3aS,4R,6R,7aS)-2-((4-(tert-butyl)-2-methoxyphenyl)sulfonyl)-5,5-dimethyloctahydro-3aH-4,6-methanoisoindol-3a-yl)methyl (4-iodophenyl)carbamate]",< 25,46 ± 15,–,–,14 ± 15 (5) %,59 ± 16 (5) %,–,–,– (Inactive: >75% Kyn level observed up to a concentration of 14 µM and no IC50 value obtained),–
"CC(C)(C)c1ccc(S(=O)(=O)N2C[C@H]3C[C@H]4C[C@H](C4(C)C)[C@@]3(COC(=O)Nc3ccc(I)cc3)C2)c(Br)c1 [compound 83, ((3aS,4R,6R,7aS)-2-((2-bromo-4-(tert-butyl)phenyl)sulfonyl)-5,5-dimethyloctahydro-3aH-4,6-methanoisoindol-3a-yl)methyl (4-iodophenyl)carbamate]",< 25,35 ± 6,–,–,24 ± 15 (3) %,56 ± 4 (3) %,–,–,– (Inactive: >75% Kyn level observed up to a concentration of 14 µM and no IC50 value obtained),–
"CC(C)(C(=O)O)c1ccc(S(=O)(=O)N2C[C@H]3C[C@H]4C[C@H](C4(C)C)[C@@]3(COC(=O)Nc3ccc(I)cc3)C2)cc1 [92 (iDeg-5), 2-(4-(((3aS,4R,6R,7aS)-3a-((((4-iodophenyl)carbamoyl)oxy)methyl)-5,5-dimethyloctahydro-2H-4,6-methanoisoindol-2-yl)sulfonyl)phenyl)-2-methylpropanoic acid]",66 ± 8,30 ± 3,0.82 ± 0.14,–,23 ± 22 (5) %,46 ± 21 (5) %,36 to 54,–,–,4 fold
"CCc1cc(C(C)(C)C)ccc1S(=O)(=O)N1C[C@H]2C[C@H]3C[C@H](C3(C)C)[C@@]2(COC(=O)Nc2ccc(I)cc2)C1 [compound 80, ((3aS,4R,6R,7aS)-2-((4-(tert-butyl)-2-ethylphenyl)sulfonyl)-5,5-dimethyloctahydro-3aH-4,6-methanoisoindol-3a-yl)methyl (4-iodophenyl)carbamate]",35 ± 8,13 ± 3,> 14,weak inhibitors,25 ± 10 (3) %,56 ± 4 (3) %,–,–,–,–
"C#Cc1ccc(NC(=O)OC[C@]23CN(S(=O)(=O)c4ccc(C(C)(C)C)cc4)C[C@H]2C[C@H]2C[C@@H]3C2(C)C)cc1 [43 (iDeg-3), ((3aS,4R,6R,7aS)-2-((4-(tert-butyl)phenyl)sulfonyl)-5,5-dimethyloctahydro-3aH-4,6-methanoisoindol-3a-yl)methyl (4-ethynylphenyl)carbamate]",< 25,46 ± 21,–,–,29 ± 16 (5) %,62 ± 10 (5) %,–,62,– (Inactive: >75% Kyn level observed up to a concentration of 14 µM and no IC50 value obtained),three‐fold
"Cc1cc(C(C)(C)C)ccc1S(=O)(=O)N1C[C@H]2C[C@H]3C[C@H](C3(C)C)[C@@]2(COC(=O)Nc2ccc(I)cc2)C1 [79 (iDeg-4), ((3aS,4R,6R,7aS)-2-((4-(tert-butyl)-2-methylphenyl)sulfonyl)-5,5-dimethyloctahydro-3aH-4,6-methanoisoindol-3a-yl)methyl (4-iodophenyl)carbamate]",25 ± 5,25 ± 5,> 14,weak inhibitors,31 ± 6 (3) %,65 ± 10 (14) %,–,–,–,–
"CC(C)(C)c1ccc(S(=O)(=O)N2C[C@H]3C[C@H]4C[C@H](C4(C)C)[C@@]3(COC(=O)Nc3ccc(I)cc3)C2)c(I)c1 [compound 84, ((3aS,4R,6R,7aS)-2-((4-(tert-butyl)-2-iodophenyl)sulfonyl)-5,5-dimethyloctahydro-3aH-4,6-methanoisoindol-3a-yl)methyl (4-iodophenyl)carbamate]",16 ± 4,42 ± 15,–,–,inactive,55 ± 5 (3) %,–,–,– (Inactive: >75% Kyn level observed up to a concentration of 14 µM and no IC50 value obtained),–

# The next lines start with results.
inhibition at 14 µM (recombinant human IDO1) [%],IC50 [1] [nM],IC50 (recombinant human IDO1) [µM],in vitro IDO1 inhibition (in words) (recombinant human IDO1),Max. degradation (%) ([2]; 10 nM),Max. degradation (%) ([2]; 100 nM),Dmax at 0.1 µM ([2]; BxPC3 cells) [%],"Degradation Efficiency (%) ([2]; 100 nM, BxPC3 cells, heatmap Fig. 3d)",SMILES,IDO1 activity IC50 [µM] (in vitro assay) (recombinant human IDO1),fold increase in potency compared to iDeg-2 in Kyn assay [1]
< 25,73 ± 41,–,–,–,–,–,–,"COC(=O)C(C)(C)c1ccc(S(=O)(=O)N2C[C@H]3C[C@H]4C[C@H](C4(C)C)[C@@]3(COC(=O)Nc3ccc(I)cc3)C2)c(OC)c1 [compound 93, Methyl 2-(4-(((3aS,4R,6R,7aS)-3a-((((4-iodophenyl)carbamoyl)oxy)methyl)-5,5-dimethyloctahydro-2H-4,6-methanoisoindol-2-yl)sulfonyl)-3-methoxyphenyl)-2-methylpropanoate]",– (Inactive: >75% Kyn level observed up to a concentration of 14 µM and no IC50 value obtained),–
62 ± 1,14 ± 3,0.19 ± 0.1,–,15 ± 2 (3) %,20 ± 12 (3) %,–,–,"CC(C)(C(=O)O)c1ccc(S(=O)(=O)N2C[C@H]3C[C@H]4C[C@H](C4(C)C)[C@@]3(COC(=O)Nc3ccc(I)cc3)C2)c(Cl)c1 [compound 96, 2-(3-chloro-4-(((3aS,4R,6R,7aS)-3a-((((4-iodophenyl)carbamoyl)oxy)methyl)-5,5-dimethyloctahydro-2H-4,6-methanoisoindol-2-yl)sulfonyl)phenyl)-2-methylpropanoic acid]",–,–
65 ± 4,5 ± 1,0.11 ± 0.02,–,11 ± 24 (3) %,18 ± 19 (3) %,–,–,"Cc1cc(C(C)(C)C(=O)O)ccc1S(=O)(=O)N1C[C@H]2C[C@H]3C[C@H](C3(C)C)[C@@]2(COC(=O)Nc2ccc(I)cc2)C1 [compound 97, 2-(4-(((3aS,4R,6R,7aS)-3a-((((4-iodophenyl)carbamoyl)oxy)methyl)-5,5-dimethyloctahydro-2H-4,6-methanoisoindol-2-yl)sulfonyl)-3-methylphenyl)-2-methylpropanoic acid]",–,–
57 ± 3,80 ± 22,0.67 ± 0.1,–,Inactive (5),Inactive (5),–,–,"COc1cc(C(C)(C)C(=O)O)ccc1S(=O)(=O)N1C[C@H]2C[C@H]3C[C@H](C3(C)C)[C@@]2(COC(=O)Nc2ccc(I)cc2)C1 [compound 95, 2-(4-(((3aS,4R,6R,7aS)-3a-((((4-iodophenyl)carbamoyl)oxy)methyl)-5,5-dimethyloctahydro-2H-4,6-methanoisoindol-2-yl)sulfonyl)-3-methoxyphenyl)-2-methylpropanoic acid]",–,–
39 ± 7,10 ± 4,> 14,–,61 ± 2 (3) %,71 ± 11 (3) %,–,–,"C#Cc1ccc(NC(=O)OC[C@]23CN(S(=O)(=O)c4ccc(C(C)(C)C)cc4C4CC4)C[C@H]2C[C@H]2C[C@@H]3C2(C)C)cc1 [compound 100, ((3aS,4R,6R,7aS)-2-((4-(tert-butyl)-2-cyclopropylphenyl)sulfonyl)-5,5-dimethyloctahydro-3aH-4,6-methanoisoindol-3a-yl)methyl (4-ethynylphenyl)carbamate]",–,–
< 25,43 ± 24,–,–,–,–,–,–,"COC(=O)C(C)(C)c1ccc(S(=O)(=O)N2C[C@H]3C[C@H]4C[C@H](C4(C)C)[C@@]3(COC(=O)Nc3ccc(I)cc3)C2)c(Cl)c1 [compound 94, Methyl 2-(3-chloro-4-(((3aS,4R,6R,7aS)-3a-((((4-iodophenyl)carbamoyl)oxy)methyl)-5,5-dimethyloctahydro-2H-4,6-methanoisoindol-2-yl)sulfonyl)phenyl)-2-methylpropanoate]",– (Inactive: >75% Kyn level observed up to a concentration of 14 µM and no IC50 value obtained),–
59 ± 2,32 ± 7,1.9 ± 0.5,–,27 ± 5 (3) %,36 ± 2 (3) %,36 to 54,–,"CC(C)(CC(=O)O)c1ccc(S(=O)(=O)N2C[C@H]3C[C@H]4C[C@H](C4(C)C)[C@@]3(COC(=O)Nc3ccc(I)cc3)C2)cc1 [compound 91, 3-(4-(((3aS,4R,6R,7aS)-3a-((((4-iodophenyl)carbamoyl)oxy)methyl)-5,5-dimethyloctahydro-2H-4,6-methanoisoindol-2-yl)sulfonyl)phenyl)-3-methylbutanoic acid]",–,–

# From publication PMC12811658, “Design, Synthesis, and Structural Evolution of Pseudo‐Natural Product IDO1 Inhibitors and Degraders” (Angewandte Chemie (International Ed. in English), 2025)
